Earlier results as cited in paper PMC4716540 (British Journal of Cancer, 2015).

Tested on: haematological and solid tumours
Conditions: early clinical trials; ref Zhou et al, 2012; cited from earlier work

| Structure (SMILES) | Visual disorders (blurred vision, flashes, delayed light/dark accommodation, photophobia) |
| --- | --- |
| CC1(C)CC(=O)c2c(C(F)(F)F)nn(-c3ccc(C(N)=O)c(N[C@H]4CC[C@H](OC(=O)CN)CC4)c3)c2C1 [SNX-5422] | associated with visual disorders |
| CO[C@H]1/C=C\C=C(/C)C(=O)NC2=CC(=O)C(NCCN(C)C)=C(C[C@@H](C)C[C@H](OC)[C@H](O)[C@@H](C)/C=C(\C)[C@@H]1OC(N)=O)C2=O [alvespimycin] | associated with visual disorders |
